Values of other authors as cited in patent publication US20230295082A1, “MODIFIED EZETIMIBE DRUG FOR CANCER TREATMENT” (University of South Africa, priority 2020, published 2023).

What was measured:
Mdm2 p53-binding domain = Mdm2 p53-binding domain (Homo sapiens, UniProt Q00987); details: applicant's previous work
[1] = system: cancer cell lines, especially those that overexpress Mdm2

Chain of Mdm2 p53-binding domain (Q00987 26-109 limits assumed): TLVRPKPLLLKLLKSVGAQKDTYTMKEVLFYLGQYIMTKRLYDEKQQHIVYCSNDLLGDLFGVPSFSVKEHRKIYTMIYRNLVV

binding to the Mdm2 hydrophobic pocket relative to nutlins (Mdm2 p53-binding domain): bind more strongly than nutlins
Structure (SMILES): O=C1[C@H](CC[C@H](O)c2ccc(F)cc2)[C@@H](c2ccc(O)cc2)N1c1ccc(F)cc1 [ezetimibe]
toxicity to cancer cell lines [1]: toxic to cancer cell lines
